The experiment addresses Cav2.3 (Homo sapiens, UniProt Q15878). The experiment is described as follows: Human Cav2.3 channel calcium-influx assay. The settings on record: HEK-293 T-Rex/Kir2.1 cells with inducible Cav2.3e-β4-α2δ1; Fluo8 fluorescence; 8-point dose response from 30 μM; no pluronic acid; read-out: Cav2.3 (pIC50) (converted). It is filed as cell-based. As to the method:
HEK-293 T-Rex cells were transfected with pcDNA3.1-Kir2.1 to generate a stable cell line. After antibiotic selection, the obtained stable pools were analysed using FLIPR^TETRA(membrane potential assay), and a limiting dilution was performed and a HEK-293 T-Rex/Kir2.1 clone was selected. The clone was transfected with pcDNA3.1-Cav2.3e and pBud-Cav-β4-α2δ1 to generate a stable cell line where the Cav2.3e expression is inducible. After antibiotic selection, functional clone pool analysis and two successive limiting dilutions, the final clone underwent a qPCR analysis and a biophysical and pharmacological validation using patch-clamp.
A compound plate, containing 10 test compounds in eight-points dose response with n=4, was prepared. Test compounds dose response curves were prepared in automated fashion in 100% DMSO at CyBio Felix and starting from a stock solution in 100% DMSO; a defined volume was serially moved into destination wells pre-filled with the desired DMSO volume; stock solution concentration volumes were dependent on the final compounds concentrations to be tested and the final DMSO content used in the assay. For the assay test compounds dose response curves ranged from 30 μM and half log dilution with 0.3% final DMSO. In order to obtain the 8-points dose response curve all the concentrations were created by starting from a 10 mM DMSO stock solution and then moving 9.5 μL into a destination well pre-filled with 20.5 μL of 100% DMSO and repeating this step seven times. This initial step was done into 96 MTP plates, 10 compounds/plate. One 384 MTP was then reformatted to contain all the 10 compounds at 8 concentrations, quadruplicate data points. This so obtained 384 MTP compound plate served as source plate in a “mother to child” process with a CyBi®-Well dispenser in which 0.7 μL of compounds were moved into a destination plate pre-filled with 57.6 μL of Tyrode's buffer 0 mM K^+, thus obtaining 4× concentrated compounds solution. In columns 1-2 and 23-24 the control wells were added. Both “source” compound plate and “destination” compound plate were barcoded and a relationship between the two plates was thus generated.
The day before the experiment, cells were detached by gentle wash with DPBS, followed by 5 min incubation at 37° C. with Trypsin solution. Detached cells were diluted with OptiMEM+Doxycycline at 0.2 μg/mL, counted and plated in Poly-D-Lysine coated black/clear bottom (15.000 c/well in 20 μl/well) by the use of a MATRIX WellMate dispenser. Plates were placed into a humidified incubator at 37° C. with 5% CO2 until the experimental day. 24 h after seeding 10 μL/well of 1.5× Fluo8 NW dye solution prepared in Tyrode's buffer 0 mM K^+ were added on top of the seeding medium. Cell plates were incubated for 40-60 min at RT in the dark. We then Injected off-line 10 μL/well of test compounds and controls 4× concentrated in Tyrode's Buffer 0 mM K+ with the CyBi®-Well instrument. Cell plates were incubated 3 minutes at RT. Finally, we injected 20 μL/well of 3× concentrated activator solution (K20-Na130-Ca2 buffer: 20 mM KCl, 130 mM NaCl, 2 mM CaCl2, 10 mM HEPES, 10 mM Glucose, final concentrations, prepared starting from “K0-Na150-Ca2” and “K150-Na0-Ca2” buffers) at FDSS7000EX instrument and read emitted fluorescence for 130 seconds.
Data analysis was performed with Genedata Screener® software and reported compounds activity as % effect in relation to the normalization standards. The Kinetic Response Value (KRV) is calculated as follows:
KRV=Maximal fluorescence recorded from second 5 to second 130 minus baseline fluorescence, computed as average from second 1 to second 2, of the kinetic trace. The KRV was normalized versus Neutral Controls and Inhibitor Controls in order to obtain the Activity[%] for each well. […] Therefore, the compound activity values were scaled (based on the two references) to a common range (two-point normalization). […]

Sequence of Cav2.3 (Q15878 1-2270 isoform Q15878-3): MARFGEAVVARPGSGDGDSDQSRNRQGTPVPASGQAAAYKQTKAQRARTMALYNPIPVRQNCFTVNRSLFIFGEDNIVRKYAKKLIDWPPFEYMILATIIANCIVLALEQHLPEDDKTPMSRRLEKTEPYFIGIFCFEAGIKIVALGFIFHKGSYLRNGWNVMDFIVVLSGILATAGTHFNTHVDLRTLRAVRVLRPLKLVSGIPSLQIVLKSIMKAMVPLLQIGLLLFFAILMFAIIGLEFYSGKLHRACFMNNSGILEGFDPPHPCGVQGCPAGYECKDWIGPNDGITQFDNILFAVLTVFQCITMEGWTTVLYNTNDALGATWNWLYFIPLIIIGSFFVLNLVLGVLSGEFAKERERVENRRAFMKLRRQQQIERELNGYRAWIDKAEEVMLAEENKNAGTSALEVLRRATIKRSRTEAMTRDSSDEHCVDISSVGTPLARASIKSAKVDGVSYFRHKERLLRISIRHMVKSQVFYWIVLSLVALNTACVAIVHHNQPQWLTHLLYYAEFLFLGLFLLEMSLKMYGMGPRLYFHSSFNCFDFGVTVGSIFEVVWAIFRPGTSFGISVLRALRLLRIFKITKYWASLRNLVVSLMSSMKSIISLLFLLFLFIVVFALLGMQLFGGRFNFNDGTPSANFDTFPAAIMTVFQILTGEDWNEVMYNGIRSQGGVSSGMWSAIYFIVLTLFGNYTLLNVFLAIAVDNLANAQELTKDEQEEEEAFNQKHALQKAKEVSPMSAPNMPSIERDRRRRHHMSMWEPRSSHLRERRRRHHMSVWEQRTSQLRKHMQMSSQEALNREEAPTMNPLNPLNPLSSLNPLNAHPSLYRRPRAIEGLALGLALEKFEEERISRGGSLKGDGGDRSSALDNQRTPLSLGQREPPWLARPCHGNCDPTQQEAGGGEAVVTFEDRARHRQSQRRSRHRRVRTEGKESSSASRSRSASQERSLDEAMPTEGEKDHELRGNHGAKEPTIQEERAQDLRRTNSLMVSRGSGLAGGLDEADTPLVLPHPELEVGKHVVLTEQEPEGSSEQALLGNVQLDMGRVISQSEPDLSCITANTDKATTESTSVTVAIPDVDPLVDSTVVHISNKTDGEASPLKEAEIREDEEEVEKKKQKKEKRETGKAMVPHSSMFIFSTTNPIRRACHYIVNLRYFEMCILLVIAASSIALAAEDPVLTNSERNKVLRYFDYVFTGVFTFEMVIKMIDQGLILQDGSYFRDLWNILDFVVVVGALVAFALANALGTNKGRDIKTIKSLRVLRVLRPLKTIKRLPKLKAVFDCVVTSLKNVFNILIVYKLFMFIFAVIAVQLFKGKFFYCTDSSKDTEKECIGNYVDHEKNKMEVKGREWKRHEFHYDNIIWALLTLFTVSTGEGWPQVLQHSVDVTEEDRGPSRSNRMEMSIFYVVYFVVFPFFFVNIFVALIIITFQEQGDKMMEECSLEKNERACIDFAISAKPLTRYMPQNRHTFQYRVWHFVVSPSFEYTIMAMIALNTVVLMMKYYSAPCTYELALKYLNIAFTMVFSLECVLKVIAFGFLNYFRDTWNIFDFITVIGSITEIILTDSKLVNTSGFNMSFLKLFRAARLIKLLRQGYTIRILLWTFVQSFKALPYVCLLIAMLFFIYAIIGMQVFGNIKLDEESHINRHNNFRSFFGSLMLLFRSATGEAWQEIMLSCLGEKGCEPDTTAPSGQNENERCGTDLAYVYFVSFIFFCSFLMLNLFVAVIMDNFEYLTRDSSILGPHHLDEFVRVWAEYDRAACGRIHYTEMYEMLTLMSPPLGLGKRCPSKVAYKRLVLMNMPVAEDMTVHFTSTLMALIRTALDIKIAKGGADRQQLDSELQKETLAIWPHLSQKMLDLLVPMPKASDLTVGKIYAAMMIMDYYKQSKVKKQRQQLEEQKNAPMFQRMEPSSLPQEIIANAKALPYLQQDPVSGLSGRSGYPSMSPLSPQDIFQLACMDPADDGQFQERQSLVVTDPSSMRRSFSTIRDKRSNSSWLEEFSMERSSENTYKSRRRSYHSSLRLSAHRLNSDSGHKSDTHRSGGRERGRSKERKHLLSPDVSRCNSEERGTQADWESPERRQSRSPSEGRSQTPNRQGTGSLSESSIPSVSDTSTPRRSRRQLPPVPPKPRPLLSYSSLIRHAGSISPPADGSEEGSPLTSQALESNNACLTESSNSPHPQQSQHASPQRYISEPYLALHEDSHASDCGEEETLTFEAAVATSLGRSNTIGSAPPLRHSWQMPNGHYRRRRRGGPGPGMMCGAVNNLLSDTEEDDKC

Regarding `CC(C)C(=O)N1CCc2ccc(S(=O)(=O)NCC(C)c3ccc(F)cc3)cc2C1` (single isomer, unassigned) [Example 17, N-(2-(4-fluorophenyl)propyl)-2-isobutyryl-1,2,3,4-tetrahydroisoquinoline-7-sulfonamide], the IC50 is 6170 nM.
As for `CCN([C@@H](c1ccc(F)cc1)C(F)(F)F)S(=O)(=O)c1ccc2c(c1)CN(C(=O)C(C)C)CC2` (stereo in doubt) [Example 7, N-ethyl-2-isobutyryl-N-(2,2,2-trifluoro-1-(4-fluorophenyl)ethyl)-1,2,3,4-tetrahydroisoquinoline-7-sulfonamide], the figure is 2000 nM; as for `C[C@@H](c1ccccc1)N(C)S(=O)(=O)c1ccc2c(c1)CN(C(=O)C(F)(F)F)CC2` [Example 2, (S)-N-methyl-N-(1-phenylethyl)-2-(2,2,2-trifluoroacetyl)-1,2,3,4-tetrahydroisoquinoline-7-sulfonamide], 2040 nM; as for `C[C@@H](c1ccccc1)N(C)S(=O)(=O)c1ccc2c(c1)CN(c1ccncc1)CC2` [Example 3, (S)-N-methyl-N-(1-phenylethyl)-2-(pyridin-4-yl)-1,2,3,4-tetrahydroisoquinoline-7-sulfonamide], 2090 nM.
In the case of `C[C@@H](c1ccccc1)N(C)S(=O)(=O)c1ccc2c(c1)CN(C(=O)c1ccccc1)CC2` [Example 4, (S)-2-benzoyl-N-methyl-N-(1-phenylethyl)-1,2,3,4-tetrahydroisoquinoline-7-sulfonamide], the IC50 is 2000 nM.
As to `CCN(C(c1ccc(F)cc1)C(F)(F)F)S(=O)(=O)c1ccc2c(c1)CN(C(=O)C(C)C)CC2` (stereo not shown) [Example 5, N-ethyl-2-isobutyryl-N-(2,2,2-trifluoro-1-(4-fluorophenyl)ethyl)-1,2,3,4-tetrahydroisoquinoline-7-sulfonamide], the IC50 was 437 nM.
Consider `CC(C)C(=O)N1CCc2ccc(S(=O)(=O)N(C)C(c3ccc(F)cc3)C(F)(F)F)cc2C1` (stereo not shown) [Example 8, 2-isobutyryl-N-methyl-N-(2,2,2-trifluoro-1-(4-fluorophenyl)ethyl)-1,2,3,4-tetrahydroisoquinoline-7-sulfonamide], for which the IC50 is 1070 nM.
Consider `CC(C)C(=O)N1CCc2ccc(S(=O)(=O)N(C)[C@@H](c3ccc(F)cc3)C(F)(F)F)cc2C1` [Example 10, (S)-2-isobutyryl-N-methyl-N-(2,2,2-trifluoro-1-(4-fluorophenyl)ethyl)-1,2,3,4-tetrahydroisoquinoline-7-sulfonamide], for which the IC50 was 3720 nM.
On to `CC(C)C(=O)N1CCc2ccc(S(=O)(=O)N(C)[C@@H](C)c3ccc(F)cc3)cc2C1` [Example 11, (S)-N-(1-(4-fluorophenyl)ethyl)-2-isobutyryl-N-methyl-1,2,3,4-tetrahydroisoquinoline-7-sulfonamide], for which the IC50 is 851 nM.
As for `CCN([C@@H](C)c1ccc(F)cc1)S(=O)(=O)c1ccc2c(c1)CN(C(=O)C1CC1)CC2` [Example 13, (S)-2-(cyclopropanecarbonyl)-N-ethyl-N-(1-(4-fluorophenyl)ethyl)-1,2,3,4-tetrahydroisoquinoline-7-sulfonamide], the figure is 912 nM.
As for `CC(C)C(=O)N1CCc2ccc(S(=O)(=O)N(C)[C@@H](C)c3ccccc3)cc2C1` [Example 15, (S)-2-isobutyryl-N-methyl-N-(1-phenylethyl)-1,2,3,4-tetrahydroisoquinoline-7-sulfonamide], the figure is 891 nM.
As for `C[C@@H](c1ccccc1)N(C)S(=O)(=O)c1ccc2c(c1)CN(C(=O)C1CC1)CC2` [Example 16, (S)-2-(cyclopropanecarbonyl)-N-methyl-N-(1-phenylethyl)-1,2,3,4-tetrahydroisoquinoline-7-sulfonamide], the figure is 1020 nM; as for `CCN(C(c1ccc(F)cc1)C(F)(F)F)S(=O)(=O)c1ccc2c(c1)CN(C(=O)C(C)(C)F)CC2` (stereo not shown) [Example 18, N-ethyl-2-(2-fluoro-2-methylpropanoyl)-N-(2,2,2-trifluoro-1-(4-fluorophenyl)ethyl)-1,2,3,4-tetrahydroisoquinoline-7-sulfonamide], 1100 nM.
